According to patent US10435361B2, “Kinase inhibitors” (Topivert Pharma Limited, priority 2013, dated 2019):

Columns and labels:
Format in all cases: cell-based
[1] = test system: PBMCs; test: Cell mitosis assay in PBMCs; conditions: Homo sapiens, PBMC, 5 μg/mL
Protocol: Peripheral blood mononucleocytes (PBMCs) from healthy subjects are separated from whole blood (Quintiles, London, UK) using a density gradient (Histopaque®-1077, Sigma-Aldrich, Poole, UK). The PBMCs (3 million cells per sample) are subsequently treated with 2% PHA (phytohaemagglutinin, Sigma-Aldrich, Poole, UK) for 48 hr, followed by a 20 hr exposure to varying concentrations of test compounds. At 2 hr before collection, PBMCs are treated with demecolcine (0.1 μg/mL; Invitrogen, Paisley, UK) to arrest cells in metaphase. To observe mitotic cells, PBMCs are permeabilised and fixed by adding Intraprep (50 μL; Beckman Coulter, France), and stained with anti-phospho-histone 3 (0.26 ng/L; #9701; Cell Signalling, Danvers, Mass.) and propidium iodide (1 mg/mL; Sigma-Aldrich, Poole, UK) as previously described (Muehlbauer P. A. and Schuler M. J., Mutation Research, 2003, 537:117-130). Fluorescence is observed using an ATTUNE flow cytometer (Invitrogen, Paisley, UK), gating for lymphocytes.

[2] = test system: PBMCs; test: LPS-induced TNFα/IL-8 release in PBMC cells; conditions: Homo sapiens, assay (b), read-out: IC50 Values for Inhibition of Cytokine Release PBMCs IL-8
Protocol: Peripheral blood mononuclear cells (PBMCs) from healthy subjects are separated from whole blood using a density gradient (Lymphoprep, Axis-Shield Healthcare). The PBMCs are seeded in 96 well plates and treated with compounds at the desired concentration for 2 hours before addition of 1 ng/mL LPS (Escherichia Coli 0111:B4 from Sigma Aldrich) for 24 hours under normal tissue culture conditions (37° C., 5% CO2). The supernatant is harvested for determination of IL-8 and TNFα concentrations by sandwich ELISA (Duo-set, R&D systems) and read on the fluorescence microplate reader (Varioskan® Flash, ThermoFisher Scientific).

[3] = test system: PBMCs; test: IL-2 and IFN gamma release in CD3/CD28 stimulated PBMC cells; conditions: Homo sapiens, assay (c)
Protocol: PBMCs from healthy subjects are separated from whole blood using a density gradient (Lymphoprep, Axis-Shield Healthcare). Cells are added to a 96 well plate pre-coated with a mixture of CD3/CD28 monoclonal antibodies (0.3 μg/mL eBioscience and 3 μg/mL BD Pharmingen respectively). Compound at the desired concentration is then added to the wells and the plate left for 3 days under normal tissue culture conditions. […] The IC50 is determined from the dose response curve.

[4] = read-out: IC50 Values for Inhibition of Cytokine Release PBMCs IFNγ
[5] = read-out: IC50 Values for Inhibition of Cytokine Release PBMCs IL-2

Row | SMILES | inhibition at 5 µg/mL [1] [%] | IC50 [2] [nM] | IC50 [3, 4] [nM] | IC50 [3, 5] [nM]
1 | COCCOCCOCCOc1cc(Nc2nccc(Oc3ccc(NC(=O)Nc4cc(C(C)(C)C)cc(C(=O)NCC(=O)OC)c4OC)c4ccccc34)n2)cc(OC)c1 [Example 37, Methyl 2-(5-(tert-butyl)-2-methoxy-3-(3-(4-((2-((3-methoxy-5-(2-(2-(2-methoxyethoxy)-ethoxy)ethoxy)phenyl)amino)pyrimidin-4-yl)oxy)naphthalen-1-yl)ureido)benzamido)-acetate] | 45.9 | 2.2 | – | –
2 | COCCOCCNC(=O)c1cc(Nc2cc(Oc3ccc(NC(=O)Nc4cc(C(C)(C)C)cc(NS(C)(=O)=O)c4OC)c4ccccc34)ccn2)cc(OC)c1 [85(u), 3-[[4-[[4-[[5-tert-Butyl-3-(methanesulfonamido)-2-methoxyphenyl]-carbamoylamino]-1-naphthyl]oxy]-2-pyridyl]amino]-5-methoxy-N-[2-(2-methoxyethoxy)-ethyl]benzamide] | 38.4 | 1.4 | – | –
3 | C#Cc1cc(Nc2cc(Oc3ccc(NC(=O)Nc4cc(C(C)(C)C)cc(NS(C)(=O)=O)c4OC)c4ccccc34)ccn2)cc(C(=O)N[C@H](C)COCCOCCOC)c1 [Example 68, (R)-3-((4-((4-(3-(5-(tert-Butyl)-2-methoxy-3-(methylsulfonamido)phenyl)ureido)-naphthalen-1-yl)oxy)pyridin-2-yl)amino)-5-ethynyl-N-(1-(2-(2-methoxyethoxy)ethoxy)-propan-2-yl)benzamide] | – | 2.8 | 68.8 | 220
4 | COCCOCCOCCOc1cc(Nc2nccc(Oc3ccc(NC(=O)Nc4cc(C(C)(C)C)cc5nc(C)oc45)c4ccccc34)n2)cc(OC)c1 [Example 64, 1-(5-(tert-Butyl)-2-methylbenzo[d]oxazol-7-yl)-3-(4-((2-((3-methoxy-5-(2-(2-(2-methoxy-ethoxy)ethoxy)ethoxy)phenyl)amino)pyrimidin-4-yl)oxy)naphthalen-1-yl)urea] | – | 10.5 | – | –
5 | COCCOCCOCCOc1cc(Nc2nccc(Oc3ccc(NC(=O)Nc4cc(C(C)(C)C)ccc4OC)c4ccccc34)n2)cc(OC)c1 [Example 8, 1-(5-(tert-Butyl)-2-methoxyphenyl)-3-(4-((2-((3-methoxy-5-(2-(2-(2-methoxyethoxy)ethoxy)-ethoxy)phenyl)amino)pyrimidin-4-yl)oxy)naphthalen-1-yl)urea] | – | 28.1 | – | –
6 | COCCOCCOCCOc1cc(Nc2nccc(Oc3ccc(NC(=O)Nc4cc(C(C)(C)C)cc(C(=O)O)c4OC)c4ccccc34)n2)cc(OC)c1 [Example 21, 5-(tert-Butyl)-2-methoxy-3-(3-(4-((2-((3-methoxy-5-(2-(2-(2-methoxyethoxy)ethoxy)-ethoxy)phenyl)amino)pyrimidin-4-yl)oxy)naphthalen-1-yl)ureido)benzoic acid] | – | 34.4 | – | –
7 | COc1cc(Nc2nccc(Oc3ccc(NC(=O)Nc4cc(C(C)(C)C)cc(NS(C)(=O)=O)c4OC)c4ccccc34)n2)cc(C(=O)C2CC2)c1 [Example 50, N-(5-(tert-Butyl)-3-(3-(4-((2-((3-(cyclopropanecarbonyl)-5-methoxyphenyl)amino)-pyrimidin-4-yl)oxy)naphthalen-1-yl)ureido)-2-methoxyphenyl)methanesulfonamide] | – | 12.1 | – | –
8 | COCCOCCOCCOc1cc(Nc2cc(Oc3ccc(NC(=O)Nc4cc(C(C)(C)C)cc(C(=O)NCCN)c4OC)c4ccccc34)ccn2)cc(OC)c1 [83(g), N-(2-aminoethyl)-5-(tert-butyl)-2-methoxy-3-(3-(4-((2-((3-methoxy-5-(2-(2-(2-methoxy-ethoxy)ethoxy)ethoxy)phenyl)amino)pyridin-4-yl)oxy)naphthalen-1-yl)ureido)benzamide] | – | 7.3 | – | –
9 | COc1cc(Nc2cc(Oc3ccc(NC(=O)Nc4cc(C(C)(C)C)cc(NS(C)(=O)=O)c4OC)c4ccccc34)ccn2)cc(C(=O)NCCN2CCOCC2(C)C)c1 [85(l), 3-[[4-[[4-[[5-tert-Butyl-3-(methanesulfonamido)-2-methoxyphenyl]-carbamoylamino]-1-naphthyl]oxy]-2-pyridyl]amino]-N-[2-(3,3-dimethylmorpholin-4-yl)ethyl]-5-methoxybenzamide] | – | 2.8 | – | –
10 | COCCOCCOCCOc1cc(Nc2nccc(Oc3ccc(NC(=O)Nc4cc(C(C)(C)C)cc(C(=O)NC5CC5)c4OC)c4ccccc34)n2)cc(OC)c1 [Example 33, 5-(tert-Butyl)-N-cyclopropyl-2-methoxy-3-(3-(4-((2-((3-methoxy-5-(2-(2-(2-methoxy-ethoxy)ethoxy)ethoxy)phenyl)amino)pyrimidin-4-yl)oxy)naphthalen-1-yl)ureido)-benzamide] | – | 4.2 | – | –
11 | COCCOCCOCC[S+]([O-])c1cc(Nc2cc(Oc3ccc(NC(=O)Nc4cc(C(C)(C)C)cc(NS(C)(=O)=O)c4OC)c4ccccc34)ccn2)cc(OC)c1 (stereo not drawn) [85(x), 1-[5-tert-Butyl-3-(methanesulfonamido)-2-methoxyphenyl]-3-[4-[2-[3-methoxy-5-[2-[2-(2-methoxyethoxy)ethoxy]ethylsulfinyl]anilino]pyridin-4-yl]oxy-1-naphthyl]urea] | – | 0.9 | – | –
12 | CCOc1c(NC(=O)Nc2ccc(Oc3ccnc(Nc4cc(OC)cc(OCCOCCOCCOC)c4)n3)c3ccccc23)cc(C(C)(C)C)cc1NS(C)(=O)=O [Example 69, N-(5-(tert-butyl)-2-ethoxy-3-(3-(4-((2-((3-methoxy-5-(2-(2-(2-methoxyethoxy)ethoxy)-ethoxy)phenyl)amino)pyrimidin-4-yl)oxy)naphthalen-1-yl)ureido)phenyl)methane-sulfonamide] | – | 1.6 | 2.2 | –
13 | COCCOCCOCCOCCOCCOCCOCCNC(=O)c1cc(Nc2nccc(Oc3ccc(NC(=O)Nc4cc(C(C)(C)C)cc(NS(C)(=O)=O)c4OC)c4ccccc34)n2)cc(OC)c1 [Example 40, 3-((4-((4-(3-(5-(tert-Butyl)-2-methoxy-3-(methylsulfonamido)phenyl)ureido)naphthalen-1-yl)oxy)pyrimidin-2-yl)amino)-N-(2,5,8,11,14,17,20-heptaoxadocosan-22-yl)-5-methoxy-benzamide] | – | 3.1 | – | –
14 | C#Cc1cc(Nc2cc(Oc3ccc(NC(=O)Nc4cc(C(C)(C)C)cc(NS(C)(=O)=O)c4OC)c4ccccc34)ccn2)cc(C(=O)NCCN2CCN(C)CC2)c1 [85(c), 3-[[4-[[4-[[5-tert-Butyl-3-(methanesulfonamido)-2-methoxyphenyl]-carbamoylaminol]-1-naphthyl]oxy]-2-pyridyl]amino]-5-ethynyl-N-[2-(4-methylpiperazin-1-yl)ethyl]benzamide] | – | 4.6 | – | –
15 | COc1cc(Nc2cc(Oc3ccc(NC(=O)Nc4cc(C(C)(C)C)cc(NS(C)(=O)=O)c4OC)c4ccccc34)ccn2)cc(C(=O)NCCN2CCNCC2)c1 [85(q), 3-[[4-[[4-[[5-tert-Butyl-3-(methanesulfonamido)-2-methoxyphenyl]-carbamoylamino]-1-naphthyl]oxy]-2-pyridyl]amino]-5-methoxy-N-(2-piperazin-1-ylethyl)benzamide] | – | 6.1 | – | –
16 | C#Cc1cc(Nc2cc(Oc3ccc(NC(=O)Nc4cc(C(N)=O)cc(C(C)(C)C)c4)c4ccccc34)ccn2)cc(C(=O)NCCOCCOCCOC)c1 [Example 62, 3-((4-((4-(3-(3-(tert-Butyl)-5-carbamoylphenyl)ureido)naphthalen-1-yl)oxy)pyridin-2-yl)amino)-5-ethynyl-N-(2-(2-(2-methoxyethoxy)ethoxy)ethyl)benzamide] | – | 4.6 | 32.2 | 48.7
17 | COCCOCCOCCOc1cc(Nc2nccc(Oc3ccc(NC(=O)Nc4cc(C(C)(C)C)cc(NS(=O)(=O)N5CCOCC5)c4OC)c4ccccc34)n2)cc(OC)c1 [83(b), N-(5-(tert-butyl)-2-methoxy-3-(3-(4-((2-((3-methoxy-5-(2-(2-(2-methoxyethoxy)ethoxy)-ethoxy)phenyl)amino)pyrimidin-4-yl)oxy)naphthalen-1-yl)ureido)phenyl)morpholine-4-sulfonamide] | – | 3.7 | – | 109
18 | C#Cc1cc(Nc2nccc(Oc3ccc(NC(=O)Nc4cc(C(C)(C)C)cc(C(=O)NC)c4OC)c4ccccc34)n2)cc(C(=O)NCCN2CCOCC2)c1 [Example 9, 5-(tert-Butyl)-3-(3-(4-((2-((3-ethynyl-5-((2-morpholinoethyl)carbamoyl)phenyl)amino)-pyrimidin-4-yl)oxy)naphthalen-1-yl)ureido)-2-methoxy-N-methylbenzamide] | – | 1.2 | – | –
19 | COc1cc(Nc2nccc(Oc3ccc(NC(=O)Nc4cc(C(C)(C)C)cc(NS(C)(=O)=O)c4OC)c4ccccc34)n2)cc(C(=O)NCCOCCOCCC(=O)O)c1 [Example 26, 3-(2-(2-(3-((4-((4-(3-(5-(tert-Butyl)-2-methoxy-3-(methylsulfonamido)phenyl)ureido)-naphthalen-1-yl)oxy)pyrimidin-2-yl)amino)-5-methoxybenzamido)ethoxy)ethoxy)-propanoic acid] | – | 21.7 | – | –
